Values of other authors as cited in patent US8357659B2, “Method of treating pain or itching with APETx2 peptide toxin” (priority 2008, dated 2013).

How the values were obtained:
heteromer ASIC1a+3 = target: T1, heteromer ASIC1a+3 (Rattus norvegicus, UniProt O35240+P55926); details: relative to ASIC3 / ASIC2b+3; cited from earlier work
T1 sequence (P55926 1-526): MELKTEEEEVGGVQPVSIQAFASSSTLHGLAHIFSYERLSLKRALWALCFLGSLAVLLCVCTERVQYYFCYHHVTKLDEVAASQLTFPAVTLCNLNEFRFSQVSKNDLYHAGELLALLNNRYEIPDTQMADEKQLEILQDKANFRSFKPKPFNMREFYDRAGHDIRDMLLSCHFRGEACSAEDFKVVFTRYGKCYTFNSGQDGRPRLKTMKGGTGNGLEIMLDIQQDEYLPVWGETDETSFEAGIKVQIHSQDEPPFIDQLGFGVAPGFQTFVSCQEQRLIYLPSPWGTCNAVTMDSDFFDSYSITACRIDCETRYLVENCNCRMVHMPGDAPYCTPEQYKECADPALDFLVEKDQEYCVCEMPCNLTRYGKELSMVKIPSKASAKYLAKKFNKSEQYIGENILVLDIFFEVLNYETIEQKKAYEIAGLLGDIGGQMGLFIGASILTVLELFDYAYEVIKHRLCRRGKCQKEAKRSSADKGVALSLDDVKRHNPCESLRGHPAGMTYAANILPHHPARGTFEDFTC
T1 sequence (O35240 1-533): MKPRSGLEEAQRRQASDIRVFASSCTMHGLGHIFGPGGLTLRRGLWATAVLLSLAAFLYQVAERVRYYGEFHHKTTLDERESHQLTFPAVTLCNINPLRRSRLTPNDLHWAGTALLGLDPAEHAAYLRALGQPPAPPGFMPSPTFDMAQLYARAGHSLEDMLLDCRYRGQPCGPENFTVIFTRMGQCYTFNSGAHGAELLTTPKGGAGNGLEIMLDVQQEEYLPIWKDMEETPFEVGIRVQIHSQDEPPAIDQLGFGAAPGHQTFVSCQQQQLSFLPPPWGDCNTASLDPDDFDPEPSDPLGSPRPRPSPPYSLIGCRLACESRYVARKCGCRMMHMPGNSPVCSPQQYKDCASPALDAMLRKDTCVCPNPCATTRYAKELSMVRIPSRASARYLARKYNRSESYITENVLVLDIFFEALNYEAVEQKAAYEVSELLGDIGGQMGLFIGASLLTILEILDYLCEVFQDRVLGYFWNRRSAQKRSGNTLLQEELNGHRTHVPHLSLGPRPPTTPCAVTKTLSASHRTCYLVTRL

ASIC3 = target: T2, ASIC3 (Rattus norvegicus, UniProt O35240); details: cited from earlier work
T2 sequence (O35240 1-533): T1 sequence (O35240 1-533)

heteromer ASIC1b+3 = target: T3, heteromer ASIC1b+3 (Rattus norvegicus, UniProt O35240+P55926); details: relative to ASIC3 / ASIC2b+3; cited from earlier work
T3 sequence (P55926 1-559 isoform P55926-3): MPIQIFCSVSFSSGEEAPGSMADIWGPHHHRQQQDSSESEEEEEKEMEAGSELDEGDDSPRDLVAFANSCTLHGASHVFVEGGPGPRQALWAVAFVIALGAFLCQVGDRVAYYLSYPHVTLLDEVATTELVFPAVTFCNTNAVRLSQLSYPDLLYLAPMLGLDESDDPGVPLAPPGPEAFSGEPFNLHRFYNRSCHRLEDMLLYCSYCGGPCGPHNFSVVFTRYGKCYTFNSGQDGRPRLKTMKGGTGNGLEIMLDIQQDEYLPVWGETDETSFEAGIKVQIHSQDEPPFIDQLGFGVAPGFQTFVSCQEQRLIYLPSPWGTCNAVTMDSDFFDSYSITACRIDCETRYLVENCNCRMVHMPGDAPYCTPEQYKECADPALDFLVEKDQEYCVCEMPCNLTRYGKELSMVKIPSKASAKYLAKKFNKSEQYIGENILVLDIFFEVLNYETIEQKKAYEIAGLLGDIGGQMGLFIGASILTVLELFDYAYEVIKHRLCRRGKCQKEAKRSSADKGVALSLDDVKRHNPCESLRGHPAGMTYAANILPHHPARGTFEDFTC
T3 sequence (O35240 1-533): T1 sequence (O35240 1-533)

ASIC2a = target: T4, ASIC2a (Rattus norvegicus, UniProt Q62962); details: cited from earlier work
T4 sequence (Q62962 1-512): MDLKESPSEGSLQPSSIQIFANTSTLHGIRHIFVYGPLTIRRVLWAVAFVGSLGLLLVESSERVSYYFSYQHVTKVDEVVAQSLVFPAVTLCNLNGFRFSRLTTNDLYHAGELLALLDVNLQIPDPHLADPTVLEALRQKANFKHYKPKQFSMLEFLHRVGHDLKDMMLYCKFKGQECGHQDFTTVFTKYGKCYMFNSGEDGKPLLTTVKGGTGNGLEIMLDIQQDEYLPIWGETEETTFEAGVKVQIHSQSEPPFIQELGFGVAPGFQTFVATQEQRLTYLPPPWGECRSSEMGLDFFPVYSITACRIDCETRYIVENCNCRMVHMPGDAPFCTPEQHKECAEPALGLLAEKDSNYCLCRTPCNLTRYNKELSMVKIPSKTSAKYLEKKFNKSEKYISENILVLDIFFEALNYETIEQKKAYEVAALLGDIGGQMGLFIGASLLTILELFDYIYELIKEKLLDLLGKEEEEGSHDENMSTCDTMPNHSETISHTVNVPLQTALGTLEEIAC

heteromer ASIC2b+3 = target: T5, heteromer ASIC2b+3 (Rattus norvegicus, UniProt O35240+Q62962); details: cited from earlier work
T5 sequence (Q62962 1-563 isoform Q62962-2): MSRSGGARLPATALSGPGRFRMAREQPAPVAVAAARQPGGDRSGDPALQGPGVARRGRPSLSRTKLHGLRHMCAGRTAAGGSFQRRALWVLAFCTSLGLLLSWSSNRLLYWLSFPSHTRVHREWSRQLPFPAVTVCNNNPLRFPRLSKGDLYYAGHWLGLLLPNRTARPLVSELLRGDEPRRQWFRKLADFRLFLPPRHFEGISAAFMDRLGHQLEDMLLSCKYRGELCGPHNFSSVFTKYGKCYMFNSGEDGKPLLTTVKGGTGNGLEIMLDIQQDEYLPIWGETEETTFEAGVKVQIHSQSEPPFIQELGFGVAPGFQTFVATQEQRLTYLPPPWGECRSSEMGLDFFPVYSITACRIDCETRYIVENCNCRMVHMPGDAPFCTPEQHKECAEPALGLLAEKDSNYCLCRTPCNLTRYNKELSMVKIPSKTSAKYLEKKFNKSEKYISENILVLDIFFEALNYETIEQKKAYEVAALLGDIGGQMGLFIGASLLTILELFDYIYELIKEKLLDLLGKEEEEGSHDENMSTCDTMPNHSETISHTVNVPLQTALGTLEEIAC
T5 sequence (O35240 1-533): T1 sequence (O35240 1-533)

peptide of 42 amino acids (SEQ ID NO: 3), three disulphide bonds, from sea anemone Anthopleura elegantissima; blocks ASIC3 [APETx2]
affinity for the heteromer ASIC1a+3 (heteromer ASIC1a+3): less affinity | effect on the ASIC3 sustained current (ASIC3; sustained current): without affecting | IC50 (ASIC3; transient current, reversible block, read-out: IC50 for inhibition of the ASIC3 transient current): 63 nM | affinity for the heteromer ASIC1b+3 (heteromer ASIC1b+3): less affinity | effect on ASIC2a isoform (ASIC2a): does not have any effect | effect on the current of the heteromer ASIC2b+3 (heteromer ASIC2b+3): inhibits
